According to patent publication US10265321B2, “Uses of salt-inducible kinase (SIK) inhibitors” (Dana-Farber Cancer Institute, Inc., priority 2014, dated 2019):

How the values were obtained:
[1] = test system: BMDCs; assay: Cell viability of BMDCs (CellTiter-Glo, cellular ATP); type: cell-based, mouse; details: for EC50: Mus musculus, BMDC, zymosan-stimulated BMDCs, read-out: Viability loss EC50
Protocol: (§1) Bone marrow-derived DCs were differentiated from C57BL/6 bone marrow in the presence of GM-CSF-conditioned media. CD11c^+ CX3CR1^hi myeloid cells and CD11c^+ CX3CR1^− DCs were isolated from the small intestine lamina propria of Cx3cr1^eGFP/+ mice (12). Detection of cell-surface Thy1.1 expression on BMDCs from 10BiT reporter mice was conducted as described previously (24). Cell viability was estimated by change in total cellular ATP levels using CellTiterGlo assays (Promega). Preparation of recombinant SIK proteins and IC50 measurements were conducted as described previously (21). Total RNA was extracted using a NucleoSpin 96 RNA isolation kit (Macherey-Nagel) followed by cDNA synthesis and multiplex RT-PCR using a microfluidic dynamic array (Fluidigm). The concentrations of TNF-α, IL-6, IL-10, IL-12p40, IL-1β and RANTES in culture supernatants were detected using a FlexSet Cytometric bead array (BD Biosciences). Alternatively, IL-10 secretion was quantified using ELISA (BD Biosciences) or AlphaLISA (PerkinElmer) assays. NO production was estimated based on nitrate content in culture medium using the Greiss reagent.
(§2) BMDCs were seeded into black 384-well plates (Corning) at 20,000 cells/well in 40 μL complete DMEM using a Multidrop COMBI (Thermal Scientific) followed by incubation at 37° C. for 2 hr to allow for plate adherence. SIK inhibitors (100 nL/well) were pin-transferred from concentrated DMSO stocks using CyBi-Well Vario (CyBio) into duplicate plates. For each treatment plate, 32 out of 384 wells were pinned with DMSO as negative control and 32 out of 384 wells were pinned with PGE2 (5 μM final concentration). Two days after SIK inhibitor treatment, BMDCs were stimulated with zymosan (4 μg/mL final concentration) dispersed in culture medium (20 μL/well) using a Multidrop COMBI. After 18 hr, 5 μL of resulting supernatant was transferred from the culture plate to white 384-well AlphaLISA plates (Perkin Elmer) using a CyBi-Well Vario. IL-10 abundance in the supernatants was determined using an AlphaLISA assay (PerkinElmer) according to the manufacture's protocol and signal intensity measured using an EnVision multimode plate reader. SIK inhibitor activity was expressed as a % of the differences between the mean abundance of IL-10 in PGE2 versus DMSO wells on a per plate basis. Cell viability assays were conducted on the same tissue culture plates as the IL-10 assay. First media was removed and replaced by solution of 50% (vol/vol) CellTiter-Glo (Promega) in PBS. Luminescence was read using an Envision multimode plate reader, and signal intensity calculated relative to DMSO control wells on a per plate basis.

[2] = test system: IL-10 production by zymosan-stimulated BMDCs; assay: IL-10 up-regulation in zymosan-stimulated BMDCs (AlphaLISA/ELISA); type: cell-based, mouse; details: for EC50: Mus musculus, BMDC, read-out: IL-10 induction EC50; for effect on IL-10 production by BMDCs (in words): kinase inhibitor screen / PGE2 control
Protocol: as §1
(§3) C57BL/6 mice were euthanized and bone marrow harvested from femurs and tibias as described previously (Graham D B, et al. (2007) An ITAM-signaling pathway controls cross-presentation of particulate but not soluble antigens in dendritic cells. The Journal of experimental medicine 204(12):2889-2897). BMDCs were differentiated DMEM supplemented with 2 mM GlutaMAX, 10% (vol/vol) FBS, penicillin, streptomycin and 2% mouse GM-CSF conditioned media derived from TOPO cells. Cultures were differentiated for 7 days and routinely analyzed for >90% CD11c (APC anti-CD11c clone HL3; BD Biosciences) positivity by flow cytometry before use in experiments. Lentiviral transduction of bone marrow cultures was conducted by addition of 293T culture supernatants containing lentiviral particles encoding the CREB dependent luciferase reporter construct or CRTC3 targeting or control shRNAs one day post-isolation. Stable integration of lentiviral shRNA constructs was selected by addition of puromycin (3 μg/mL) on day 4 post-transduction. After 2 days, stably transduced BMDCs were released from selection and used in subsequent assays. Unless otherwise indicated, cells were treated for 2 days with PGE2 (5 μM) or HG-9-91-01 (0.5 μM) or an equivalent concentration of DMSO (≤0.5%) and then stimulated for 18 hr with LPS (100 ng/mL), R848 (10 μg/mL) or zymosan (4 μg/mL).
as §2, with “Luminescence was read using an Envision multimode plate reader, and signal intensity calculated relative to DMSO control wells on a per plate basis.” left out

[3] = molecular target: T1, SIK1 (Homo sapiens, UniProt P57059); assay: Protein kinase assay ([γ-32P] ATP, phosphocellulose paper) against SIK1; type: biochemical; details: 1 μM; DMSO set to 100%; read-out: Activity of protein kinase treated with 1 μM of I-1 (% control (DMSO)) SIK1
T1 construct: made in house
Protocol: as §1, with “Total RNA was extracted using a NucleoSpin 96 RNA isolation kit (Macherey-Nagel) followed by cDNA synthesis and multiplex RT-PCR using a microfluidic dynamic array (Fluidigm).” left out, “NO production was estimated based on nitrate content in culture medium using the Greiss reagent.” left out
In another set of experiments, the activities of the SIK inhibitors described herein against SIK were determined according to the methods reported in Hastie et al., Nature Protocols, 2006, 1, 968-971. […]
The specific activity of the [γ-^32P] […] To measure the concentration of ATP, a sample of such a stock solution was diluted to 20 μM, and the absorbance of the diluted sample was measured at 259 nm. The absorbance of a 20-μM stock solution of ATP at 259 nm was about 0.31. […] ATP to produce a radioactivity of 1×10^5 to 1×10^6 c.p.m. per nmol. […]

[4] = molecular target: T2, SIK2 (Homo sapiens, UniProt Q9H0K1); assay: Protein kinase assay ([γ-32P] ATP, phosphocellulose paper) against SIK2; type: biochemical; details: for IC50: read-out: Enzyme Inhibition IC50 SIK2
T2 construct: made in house
Protocol: as §1
(§4) In another set of experiments, the activities of the SIK inhibitors described herein against SIK were determined according to the methods reported in Hastie et al., Nature Protocols, 2006, 1, 968-971.
(§5) This buffer consisted of 50 mM Tris-HCl, pH 7.5, 0.1 mM EGTA, 1 mg ml^−1 bovine serum albumin and 0.1% (vol/vol) 2-mercaptoethanol.
(§6) An assay buffer of 500 mM Tris-HCl, pH 7.5, 1 mM EGTA, and 100 mM magnesium acetate was used for the protein kinase assay.
(§7) The specific activity of the [γ-^32P] ATP solution was 1×10^5 to 1×10^6 c.p.m. per nmol depending on what was needed to produce an optimal signal/noise ratio. Stocks of nonradioactive (“cold”) ATP were dissolved in 10 mM HEPES, and the pH of the resulting stock solutions was adjusted to 7.4. To measure the concentration of ATP, a sample of such a stock solution was diluted to 20 μM, and the absorbance of the diluted sample was measured at 259 nm. The absorbance of a 20-μM stock solution of ATP at 259 nm was about 0.31. The 1-mM solution of cold ATP was “spiked” with [γ-^32P] ATP to produce a radioactivity of 1×10^5 to 1×10^6 c.p.m. per nmol.
(§8) 1) The number of assay samples needed was determined based on, e.g., the following considerations: (i) each condition was assayed in duplicate; (ii) two controls containing peptide or protein substrate and ATP but no SIK were included to assess contamination by any free ATP not incorporated into substrate, alongside two controls lacking a peptide or protein substrate but containing ATP and SIK to correct for any incorporation of phosphate into the kinase itself (e.g., autophosphorylation); and (iii) a maximum of 40 samples were assayed manually at one time by a single person. Microcentrifuge tubes were label distinctly and were placed on ice.
(§9) 4) Dilute the SIK in enzyme dilution buffer and place on ice.
(§10) 5) Pipette 5 j±l of 10× concentrated assay buffer, 5 j±l peptide or protein substrate (the two “no-substrate” control tubes had 5 j±l water added instead of peptide or protein substrate), and 30 μl distilled water into each tube. Keep the tubes on ice.
(§11) 6) Add 5 μl diluted SIK to each tube, except for the two “no-enzyme” control tubes, which had 5 μl enzyme dilution buffer added, and still keeping the tubes on ice. In some cases, premixed “cocktails” of assay components were prepared containing peptide or protein substrate, assay buffer, and distilled water to limit the number of additions to each assay tube. Each of steps 7 to 14 was done behind a plexiglass shield.
(§12) 7) Insert each tube into the water bath at intervals of 15 s to allow the assay mixture to reach 30° C. Begin the SIK reactions by adding 5 μl of 1 mM [γ-^32P] ATP to each tube at intervals of 15 s. Close each tube, vortex for 1 s to mix the contents and immediately replace in a rack in the water bath. Incubate for 10 min at 30° C. […]

[5] = molecular target: T3, SIK3 (Homo sapiens, UniProt Q9Y2K2); assay: Protein kinase assay ([γ-32P] ATP, phosphocellulose paper) against SIK3; type: biochemical; details: read-out: Enzyme Inhibition IC50 SIK3
T3 construct: made in house
Protocol: as §1, §4, §5, §6, §7, §8, §9, §10, §11, §12

[6] = test system: BMDCs; assay: Multiplex qPCR of transcripts in stimulated BMDCs; type: cell-based, mouse; details: 2 days pre-treatment, 4 hr LPS, R848 or zymosan
Protocol: as §1
as §3, with “Unless otherwise indicated, cells were treated for 2 days with PGE2 (5 μM) or HG-9-91-01 (0.5 μM) or an equivalent concentration of DMSO (≤0.5%) and then stimulated for 18 hr with LPS (100 ng/mL), R848 (10 μg/mL) or zymosan (4 μg/mL).” left out
Total RNA was extracted using a NucleoSpin 96 RNA isolation kit (Macherey-Nagel). […] Relative gene expression was calculated from Ct values and normalized against ACTB mRNA levels as described previously (Pfaffl MW (2001) A new mathematical model for relative quantification in real-time RT-PCR. Nucleic acids research 29(9):e45). […]

[7] = test system: BMDCs; assay: Cytokine (cytometric bead array) and NO (Greiss) production by stimulated BMDCs; type: cell-based, mouse
Protocol: as §1, §3
After stimulation of cells with microbial ligands, the culture medium was removed, clarified by centrifugation for 10 min at 14,000×g, and the concentration of TNF-α, IL-6, IL-10, IL-12p40, IL-1β and RANTES were measured using FlexSet Cytokine Bead Array (BD Biosciences) according to the manufacturer's instructions. Where indicated, ELISAs were used to detect IL-10 and IL-12p70 (BD Biosciences) according to the manufacturer's instructions. NO production was estimated based on nitrate content in culture medium using the Greiss reagent as described previously (Miletic A V, et al. (2007) Vav proteins control MyD88-dependent oxidative burst. Blood 109(8):3360-3368).

T2 sequence (Q9H0K1 whole entry): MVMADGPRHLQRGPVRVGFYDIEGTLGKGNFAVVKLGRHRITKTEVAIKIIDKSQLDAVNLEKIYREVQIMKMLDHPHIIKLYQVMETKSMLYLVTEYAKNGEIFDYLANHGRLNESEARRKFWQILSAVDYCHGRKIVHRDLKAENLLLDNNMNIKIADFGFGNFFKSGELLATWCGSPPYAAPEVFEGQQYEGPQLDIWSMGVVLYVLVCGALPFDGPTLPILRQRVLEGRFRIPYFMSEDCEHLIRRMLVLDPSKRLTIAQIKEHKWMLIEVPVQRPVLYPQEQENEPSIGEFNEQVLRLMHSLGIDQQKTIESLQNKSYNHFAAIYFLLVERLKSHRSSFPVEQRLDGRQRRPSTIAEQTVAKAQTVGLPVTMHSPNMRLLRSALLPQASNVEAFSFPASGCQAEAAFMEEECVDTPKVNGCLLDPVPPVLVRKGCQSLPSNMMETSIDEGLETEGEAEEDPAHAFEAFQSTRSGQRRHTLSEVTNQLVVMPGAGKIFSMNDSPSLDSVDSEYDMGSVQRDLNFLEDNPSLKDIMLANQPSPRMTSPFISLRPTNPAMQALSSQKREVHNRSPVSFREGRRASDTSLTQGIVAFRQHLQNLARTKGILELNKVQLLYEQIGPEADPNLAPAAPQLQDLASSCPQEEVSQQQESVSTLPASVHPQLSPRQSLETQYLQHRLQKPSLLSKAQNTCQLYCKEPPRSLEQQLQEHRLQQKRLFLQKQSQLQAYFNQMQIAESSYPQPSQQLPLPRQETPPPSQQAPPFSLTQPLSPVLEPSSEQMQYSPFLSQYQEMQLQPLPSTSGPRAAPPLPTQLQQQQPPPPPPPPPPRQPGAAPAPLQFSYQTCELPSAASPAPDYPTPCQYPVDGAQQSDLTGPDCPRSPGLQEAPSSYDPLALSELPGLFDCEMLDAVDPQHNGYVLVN
T3 sequence (Q9Y2K2 whole entry): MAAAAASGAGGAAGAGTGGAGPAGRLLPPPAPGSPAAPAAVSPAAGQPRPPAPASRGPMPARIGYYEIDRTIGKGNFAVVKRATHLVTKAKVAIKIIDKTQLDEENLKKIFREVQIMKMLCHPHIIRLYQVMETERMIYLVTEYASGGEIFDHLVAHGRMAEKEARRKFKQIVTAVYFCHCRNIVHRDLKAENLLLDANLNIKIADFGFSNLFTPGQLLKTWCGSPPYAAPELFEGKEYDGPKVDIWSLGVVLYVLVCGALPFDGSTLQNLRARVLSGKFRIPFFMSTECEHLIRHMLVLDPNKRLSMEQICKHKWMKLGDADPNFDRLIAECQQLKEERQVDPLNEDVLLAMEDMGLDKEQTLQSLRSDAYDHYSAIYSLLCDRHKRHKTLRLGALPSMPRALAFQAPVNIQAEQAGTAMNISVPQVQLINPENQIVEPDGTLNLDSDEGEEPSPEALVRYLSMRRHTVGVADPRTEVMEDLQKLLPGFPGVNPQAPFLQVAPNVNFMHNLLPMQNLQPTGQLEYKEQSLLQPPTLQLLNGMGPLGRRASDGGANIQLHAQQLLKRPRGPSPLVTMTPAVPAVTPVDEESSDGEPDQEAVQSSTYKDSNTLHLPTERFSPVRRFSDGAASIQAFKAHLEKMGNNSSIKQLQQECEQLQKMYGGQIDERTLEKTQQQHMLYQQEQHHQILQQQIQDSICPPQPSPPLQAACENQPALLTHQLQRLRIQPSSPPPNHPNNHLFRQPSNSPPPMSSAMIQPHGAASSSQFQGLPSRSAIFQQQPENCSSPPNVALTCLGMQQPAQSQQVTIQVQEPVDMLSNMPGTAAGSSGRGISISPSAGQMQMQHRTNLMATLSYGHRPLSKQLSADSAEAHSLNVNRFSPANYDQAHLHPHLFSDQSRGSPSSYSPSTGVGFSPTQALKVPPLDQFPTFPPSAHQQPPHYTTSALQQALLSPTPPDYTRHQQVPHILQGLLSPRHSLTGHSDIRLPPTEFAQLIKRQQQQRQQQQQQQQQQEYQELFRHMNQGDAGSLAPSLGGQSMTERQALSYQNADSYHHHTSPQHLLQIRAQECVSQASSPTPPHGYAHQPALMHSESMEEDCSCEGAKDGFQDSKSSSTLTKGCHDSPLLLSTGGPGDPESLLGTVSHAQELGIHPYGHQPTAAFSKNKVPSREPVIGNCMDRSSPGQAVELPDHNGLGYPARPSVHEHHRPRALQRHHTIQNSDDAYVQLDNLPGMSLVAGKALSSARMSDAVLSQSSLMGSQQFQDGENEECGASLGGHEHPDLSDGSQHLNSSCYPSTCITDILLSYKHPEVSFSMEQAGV
T1 sequence (P57059 whole entry): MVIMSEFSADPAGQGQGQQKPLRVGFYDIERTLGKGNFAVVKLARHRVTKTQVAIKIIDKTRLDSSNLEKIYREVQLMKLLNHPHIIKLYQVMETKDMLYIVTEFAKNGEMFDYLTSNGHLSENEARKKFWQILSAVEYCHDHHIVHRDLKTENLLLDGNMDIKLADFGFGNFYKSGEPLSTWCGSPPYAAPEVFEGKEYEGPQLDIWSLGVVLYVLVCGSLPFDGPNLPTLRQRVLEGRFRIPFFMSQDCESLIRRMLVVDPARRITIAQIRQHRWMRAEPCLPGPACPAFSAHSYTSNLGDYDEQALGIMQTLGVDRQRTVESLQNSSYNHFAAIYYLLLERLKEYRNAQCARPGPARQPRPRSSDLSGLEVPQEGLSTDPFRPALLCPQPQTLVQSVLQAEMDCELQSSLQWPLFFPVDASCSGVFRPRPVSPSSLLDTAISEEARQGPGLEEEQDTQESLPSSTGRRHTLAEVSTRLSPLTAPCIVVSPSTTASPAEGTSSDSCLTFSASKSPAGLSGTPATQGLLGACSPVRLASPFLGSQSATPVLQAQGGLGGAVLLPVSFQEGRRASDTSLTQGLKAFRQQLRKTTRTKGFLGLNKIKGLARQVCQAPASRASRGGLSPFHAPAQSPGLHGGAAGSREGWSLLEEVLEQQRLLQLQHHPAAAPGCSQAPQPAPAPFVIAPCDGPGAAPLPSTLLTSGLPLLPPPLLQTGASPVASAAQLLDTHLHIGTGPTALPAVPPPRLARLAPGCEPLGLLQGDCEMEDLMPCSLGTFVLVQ

Row | SMILES | viability of BMDCs (in words) [1] | EC50 [1] | IC50 [4] | IC50 [5] | also measured
1 | Cc1c[nH]c(-c2cnc(NCCNc3ccc(C#N)cn3)nc2-c2ccc(Cl)cc2Cl)n1 [CHIR-99021, reference compound] | reduced viability | – | – | – | maximum effect on IL-10 production ([2]; zymosan-stimulated BMDCs, hit criterion): > 30 % of the PGE2 response
2 | CCN1CCN(CCOc2ccc3cc2COC/C=C/CN(C(=O)Oc2c(C)cccc2C)c2ccnc(n2)N3)CC1 [I-2] | – | 6.58 µM | 0.0878 µM | 0.445 µM | remaining activity at 1 µM [3]: 15.9%; remaining activity at 1 µM ([4]; 1 μM, DMSO set to 100%, read-out: Activity of protein kinase treated with 1 μM of I-1 (% control (DMSO)) SIK2): 15%
3 | Cc1cccc(C)c1OC(=O)N1C/C=C/COCc2cc(ccc2OCCN2CCC(O)CC2)Nc2nccc1n2 [I-4] | – | 5 µM | 0.0938 µM | 0.409 µM | EC50 ([2]; zymosan-stimulated BMDCs): 10.5 µM
4 | Cc1cccc(C)c1OC(=O)N1C/C=C\COCc2cc(ccc2OCCN2CCC(O)CC2)Nc2nccc1n2 [I-5] | – | 6.12 µM | 0.012 µM | 0.0737 µM | EC50 ([2]; zymosan-stimulated BMDCs): 23.8 µM
5 | CCCCC[C@H](O)/C=C/[C@H]1[C@H](O)CC(=O)[C@@H]1C/C=C\CCCC(=O)O [PGE2, prostaglandin E2, reference compound] | – | – | – | – | effect on IL-10 production by BMDCs (in words) [2]: increased levels of IL-10; IL-10 mRNA levels [6]: robustly enhanced; abundance of Arg1 and Nos2 transcripts [6]: highly induced; IL-10 secretion ([7]; BMDCs pre-treated, LPS, R848 or zymosan 18 hr): similarly induced; IL-1β production ([7]; BMDCs, stimulation with R848 or zymosan): enhanced; NO production ([7]; BMDCs, zymosan stimulation, relative to HG-9-91-01-treated): increased NO production
6 | COc1cc(N2CCC(N3CCN(C)CC3)CC2)ccc1Nc1ncc(Cl)c(Nc2ccccc2S(=O)(=O)C(C)C)n1 [TAE-684, reference compound] | reduced viability | – | – | – | –
7 | COc1cc(Nc2c(C#N)cnc3cc(OCCCN4CCN(C)CC4)c(OC)cc23)c(Cl)cc1Cl [bosutinib, reference compound] | reduced viability | – | – | – | –
8 | Cc1ccc(NC(=O)c2ccc(CN3CCN(C)CC3)cc2)cc1Nc1nccc(-c2cccnc2)n1 [imatinib, reference compound] | non-toxic | – | – | – | effect on IL-10 production by BMDCs (in words) [2]: did not up-regulate IL-10 production
9 | CN1CCN(CCOc2cc(OC3CCOCC3)c3c(Nc4c(Cl)ccc5c4OCO5)ncnc3c2)CC1 [saracatinib, reference compound] | reduced viability | – | – | – | –
